Data as given in PMC10046369, “Low-Affinity/High-Selectivity Dopamine Transport Inhibition Sufficient to Rescue Cognitive Functions in the Aging Rat” (Biomolecules, 2023).

Key:
Experiment in all cases: biochemical
Set-up in all cases: KINOMEscan competition binding panel, per cent of control
Details in all cases: read-out: %Ctrl @ 2800nM
[1] = target: T1, ABL1(F317L)-phosphorylated (Homo sapiens, UniProt P00519, F317L)
T1 construct: phosphorylated
Protocol: (§1) A panel of binding assays covering 450 human kinases and disease-relevant mutations was performed by DiscoverX (KINOMEscan®, Freemont, CA, USA) according to the standard and validated protocol defined by the contractor. […] Kinase binding assays This study was outsourced to DiscoverX (KINOMEscan®, Freemont, CA, USA) and is compliant with the corresponding project BUY004-01-p-00001. […] Results are reported as percent control (% Ctrl), where lower numbers indicate stronger hits in the matrix on the following page(s). %Ctrl calculation: ((test compound signal-positive control signal) / (negative control signal – positive control signal)) x 100.

ABL2 = ABL2 (Homo sapiens, UniProt P42684)
Protocol: as §1

CLK1 = CLK1 (Homo sapiens, UniProt P49759)
Chain of CLK1 (P49759 whole entry): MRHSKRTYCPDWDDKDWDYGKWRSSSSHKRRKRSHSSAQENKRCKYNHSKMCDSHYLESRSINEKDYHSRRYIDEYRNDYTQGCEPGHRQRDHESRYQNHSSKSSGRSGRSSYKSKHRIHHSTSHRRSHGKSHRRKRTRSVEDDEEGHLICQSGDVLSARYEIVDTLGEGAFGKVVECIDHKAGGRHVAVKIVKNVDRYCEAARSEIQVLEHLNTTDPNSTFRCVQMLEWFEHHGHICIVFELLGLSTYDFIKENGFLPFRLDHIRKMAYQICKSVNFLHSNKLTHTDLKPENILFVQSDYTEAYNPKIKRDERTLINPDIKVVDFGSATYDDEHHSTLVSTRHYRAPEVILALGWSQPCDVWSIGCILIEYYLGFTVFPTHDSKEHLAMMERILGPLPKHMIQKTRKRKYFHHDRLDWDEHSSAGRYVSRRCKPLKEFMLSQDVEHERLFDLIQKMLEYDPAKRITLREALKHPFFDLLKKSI
Protocol: as §1

CSNK1E = CSNK1E (Homo sapiens, UniProt P49674)
Chain of CSNK1E (P49674 whole entry): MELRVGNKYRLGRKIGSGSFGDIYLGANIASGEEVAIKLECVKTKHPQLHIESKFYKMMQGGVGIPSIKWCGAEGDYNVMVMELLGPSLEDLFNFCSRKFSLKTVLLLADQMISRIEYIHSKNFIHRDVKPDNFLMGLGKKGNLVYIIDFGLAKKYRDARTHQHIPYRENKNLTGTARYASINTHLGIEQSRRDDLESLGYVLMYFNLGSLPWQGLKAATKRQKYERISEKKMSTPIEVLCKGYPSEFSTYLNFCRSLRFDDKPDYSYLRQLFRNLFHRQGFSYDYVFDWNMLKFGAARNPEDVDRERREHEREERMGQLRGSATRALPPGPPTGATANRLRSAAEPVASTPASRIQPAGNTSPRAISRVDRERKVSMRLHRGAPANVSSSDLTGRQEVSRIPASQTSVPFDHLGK
Protocol: as §1

CSNK1G2 = CSNK1G2 (Homo sapiens, UniProt P78368)
Protocol: as §1

CSNK2A2 = CSNK2A2 (Homo sapiens, UniProt P19784)
Protocol: as §1

DDR1 = DDR1 (Homo sapiens, UniProt Q08345)
Protocol: as §1

ERBB2 = ERBB2 (Homo sapiens, UniProt P04626)
Protocol: as §1

FER = FER (Homo sapiens, UniProt P16591)
Protocol: as §1

FLT1 = FLT1 (Homo sapiens, UniProt P17948)
Protocol: as §1

FLT3(N841I) = FLT3(N841I) (Homo sapiens, UniProt P36888, N841I)
Protocol: as §1

GRK2 = GRK2 (Homo sapiens, UniProt P25098)
Chain of GRK2 (P25098 whole entry): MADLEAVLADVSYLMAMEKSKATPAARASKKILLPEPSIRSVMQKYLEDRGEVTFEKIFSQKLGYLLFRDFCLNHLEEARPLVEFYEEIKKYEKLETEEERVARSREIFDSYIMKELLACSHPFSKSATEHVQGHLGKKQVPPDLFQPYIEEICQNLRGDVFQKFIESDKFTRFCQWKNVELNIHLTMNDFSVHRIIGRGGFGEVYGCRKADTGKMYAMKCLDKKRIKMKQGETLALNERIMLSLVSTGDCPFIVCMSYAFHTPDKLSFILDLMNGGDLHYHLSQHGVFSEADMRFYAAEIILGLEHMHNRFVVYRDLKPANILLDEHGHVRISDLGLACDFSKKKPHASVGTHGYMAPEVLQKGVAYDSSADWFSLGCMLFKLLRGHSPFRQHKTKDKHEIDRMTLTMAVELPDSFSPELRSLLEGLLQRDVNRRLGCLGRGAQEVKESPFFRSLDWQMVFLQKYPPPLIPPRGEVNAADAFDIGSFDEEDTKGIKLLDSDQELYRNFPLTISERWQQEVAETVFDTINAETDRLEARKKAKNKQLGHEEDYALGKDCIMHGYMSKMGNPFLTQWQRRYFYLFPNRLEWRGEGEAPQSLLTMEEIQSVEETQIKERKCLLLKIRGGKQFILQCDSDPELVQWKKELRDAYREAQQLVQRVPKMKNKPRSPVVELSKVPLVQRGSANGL
Protocol: as §1

ITK = ITK (Homo sapiens, UniProt Q08881)
Protocol: as §1

LATS2 = LATS2 (Homo sapiens, UniProt Q9NRM7)
Chain of LATS2 (Q9NRM7 whole entry): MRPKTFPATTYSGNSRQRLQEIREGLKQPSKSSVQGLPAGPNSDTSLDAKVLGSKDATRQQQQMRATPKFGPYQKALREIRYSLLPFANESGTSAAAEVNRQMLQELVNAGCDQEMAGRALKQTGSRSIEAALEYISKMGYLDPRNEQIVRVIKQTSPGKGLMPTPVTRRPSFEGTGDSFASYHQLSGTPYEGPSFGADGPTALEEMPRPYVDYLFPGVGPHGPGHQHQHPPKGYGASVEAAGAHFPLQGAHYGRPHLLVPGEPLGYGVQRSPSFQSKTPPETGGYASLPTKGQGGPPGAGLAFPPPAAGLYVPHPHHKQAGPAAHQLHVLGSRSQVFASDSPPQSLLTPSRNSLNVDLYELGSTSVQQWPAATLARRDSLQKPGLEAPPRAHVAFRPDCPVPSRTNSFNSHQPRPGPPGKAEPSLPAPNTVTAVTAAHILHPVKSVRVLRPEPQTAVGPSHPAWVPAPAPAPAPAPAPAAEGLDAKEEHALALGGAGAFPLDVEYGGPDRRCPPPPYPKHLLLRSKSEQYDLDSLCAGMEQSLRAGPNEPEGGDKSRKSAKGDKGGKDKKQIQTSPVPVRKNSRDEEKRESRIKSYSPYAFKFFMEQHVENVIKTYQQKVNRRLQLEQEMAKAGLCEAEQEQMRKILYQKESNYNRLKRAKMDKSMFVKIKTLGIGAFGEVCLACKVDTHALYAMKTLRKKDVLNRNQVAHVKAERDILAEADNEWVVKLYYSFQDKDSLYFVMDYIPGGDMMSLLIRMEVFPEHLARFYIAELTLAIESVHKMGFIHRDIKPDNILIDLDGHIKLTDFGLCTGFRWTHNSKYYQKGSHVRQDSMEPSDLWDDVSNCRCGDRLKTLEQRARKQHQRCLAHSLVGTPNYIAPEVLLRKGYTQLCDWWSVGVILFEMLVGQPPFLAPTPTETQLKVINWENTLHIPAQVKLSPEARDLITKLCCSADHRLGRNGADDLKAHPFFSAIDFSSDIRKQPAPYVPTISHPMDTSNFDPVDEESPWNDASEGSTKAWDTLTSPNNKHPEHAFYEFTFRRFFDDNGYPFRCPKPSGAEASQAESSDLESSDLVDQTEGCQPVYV
Protocol: as §1

LCK = LCK (Homo sapiens, UniProt P06239)
Chain of LCK (P06239 whole entry): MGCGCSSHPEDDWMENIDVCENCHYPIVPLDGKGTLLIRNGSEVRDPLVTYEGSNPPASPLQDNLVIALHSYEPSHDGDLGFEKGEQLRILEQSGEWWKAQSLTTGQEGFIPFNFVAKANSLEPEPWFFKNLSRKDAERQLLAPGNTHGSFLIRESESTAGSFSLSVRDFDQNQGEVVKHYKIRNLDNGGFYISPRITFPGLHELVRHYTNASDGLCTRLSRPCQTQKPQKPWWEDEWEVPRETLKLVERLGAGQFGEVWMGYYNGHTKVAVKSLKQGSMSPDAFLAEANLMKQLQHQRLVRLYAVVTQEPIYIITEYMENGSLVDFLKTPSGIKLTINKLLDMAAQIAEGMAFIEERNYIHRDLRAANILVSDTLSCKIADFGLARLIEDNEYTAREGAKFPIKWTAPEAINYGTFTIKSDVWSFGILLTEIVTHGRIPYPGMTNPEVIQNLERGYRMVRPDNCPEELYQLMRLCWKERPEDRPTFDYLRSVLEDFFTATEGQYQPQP
Protocol: as §1

MAP3K15 = MAP3K15 (Homo sapiens, UniProt Q6ZN16)
Protocol: as §1

MARK4 = MARK4 (Homo sapiens, UniProt Q96L34)
Protocol: as §1

MET(Y1235D) = MET(Y1235D) (Homo sapiens, UniProt P08581, Y1235D)
Protocol: as §1

MKNK1 = MKNK1 (Homo sapiens, UniProt Q9BUB5)
Protocol: as §1

NEK11 = NEK11 (Homo sapiens, UniProt Q8NG66)
Protocol: as §1

OSR1 = target: T2, OSR1 (Homo sapiens, UniProt O95747)
T2 construct: gene OXSR1
T2 sequence (O95747 whole entry): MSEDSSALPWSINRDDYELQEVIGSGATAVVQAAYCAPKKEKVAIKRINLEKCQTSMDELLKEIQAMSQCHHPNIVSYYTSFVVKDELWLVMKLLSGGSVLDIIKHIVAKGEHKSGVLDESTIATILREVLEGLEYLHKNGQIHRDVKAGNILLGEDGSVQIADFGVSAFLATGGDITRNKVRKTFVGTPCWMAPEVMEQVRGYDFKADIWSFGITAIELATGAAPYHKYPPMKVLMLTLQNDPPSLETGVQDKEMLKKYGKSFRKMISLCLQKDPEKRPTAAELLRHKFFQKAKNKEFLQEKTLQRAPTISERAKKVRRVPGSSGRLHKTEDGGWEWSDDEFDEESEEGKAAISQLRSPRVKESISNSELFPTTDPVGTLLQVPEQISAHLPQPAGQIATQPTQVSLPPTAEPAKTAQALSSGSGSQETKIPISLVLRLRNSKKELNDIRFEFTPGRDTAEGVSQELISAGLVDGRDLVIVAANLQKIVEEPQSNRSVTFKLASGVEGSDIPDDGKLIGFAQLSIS
Protocol: as §1

PHKG2 = PHKG2 (Homo sapiens, UniProt P15735)
Protocol: as §1

PIK3CB = PIK3CB (Homo sapiens, UniProt P42338)
Chain of PIK3CB (P42338 whole entry): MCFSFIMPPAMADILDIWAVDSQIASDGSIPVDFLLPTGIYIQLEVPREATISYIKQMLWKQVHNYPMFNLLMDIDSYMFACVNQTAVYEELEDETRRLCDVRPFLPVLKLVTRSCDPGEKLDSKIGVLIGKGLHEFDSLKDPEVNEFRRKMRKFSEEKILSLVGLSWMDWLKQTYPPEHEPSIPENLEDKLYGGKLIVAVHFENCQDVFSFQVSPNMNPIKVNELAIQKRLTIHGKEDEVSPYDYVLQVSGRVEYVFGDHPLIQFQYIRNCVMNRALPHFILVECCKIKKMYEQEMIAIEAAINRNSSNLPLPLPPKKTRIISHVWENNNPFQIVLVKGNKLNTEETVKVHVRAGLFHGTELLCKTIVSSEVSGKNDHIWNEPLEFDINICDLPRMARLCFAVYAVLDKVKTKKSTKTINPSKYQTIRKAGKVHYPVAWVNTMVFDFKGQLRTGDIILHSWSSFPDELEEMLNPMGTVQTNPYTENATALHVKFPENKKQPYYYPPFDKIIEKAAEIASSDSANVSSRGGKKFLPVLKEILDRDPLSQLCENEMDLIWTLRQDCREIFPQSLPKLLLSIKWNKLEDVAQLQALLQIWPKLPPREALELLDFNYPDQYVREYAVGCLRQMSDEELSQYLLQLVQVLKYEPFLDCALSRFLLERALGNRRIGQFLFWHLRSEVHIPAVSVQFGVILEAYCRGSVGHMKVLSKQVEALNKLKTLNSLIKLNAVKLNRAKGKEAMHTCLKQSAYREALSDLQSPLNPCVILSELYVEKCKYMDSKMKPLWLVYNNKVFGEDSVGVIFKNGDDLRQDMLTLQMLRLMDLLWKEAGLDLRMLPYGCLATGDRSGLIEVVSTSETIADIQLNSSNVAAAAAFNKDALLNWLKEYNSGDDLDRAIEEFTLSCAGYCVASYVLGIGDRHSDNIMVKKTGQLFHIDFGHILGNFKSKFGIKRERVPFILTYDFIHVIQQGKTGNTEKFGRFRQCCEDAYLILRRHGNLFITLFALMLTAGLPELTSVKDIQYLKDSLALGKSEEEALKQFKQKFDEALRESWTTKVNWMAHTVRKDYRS
Protocol: as §1

PKAC-beta = target: T3, PKAC-beta (Homo sapiens, UniProt P22694)
T3 construct: gene PRKACB
Protocol: as §1

PRKD1 = PRKD1 (Homo sapiens, UniProt Q15139)
Protocol: as §1

RET = RET (Homo sapiens, UniProt P07949)
Protocol: as §1

p38-alpha = target: T4, p38-alpha (Homo sapiens, UniProt Q16539)
T4 construct: gene MAPK14
Protocol: as §1

## [O-][S@@+](Cc1cncs1)C(c1ccccc1)c1ccccc1 [S-CE-123, (S)-5-((Benzhydrylsulfinyl)Methyl)Thiazole]
[1]
  remaining binding at 2.8 µM: 100%
ABL2
  remaining binding at 2.8 µM: 99%
CLK1
  remaining binding at 2.8 µM: 96%
CSNK1E
  remaining binding at 2.8 µM: 96%
CSNK1G2
  remaining binding at 2.8 µM: 94%
CSNK2A2
  remaining binding at 2.8 µM: 100%
DDR1
  remaining binding at 2.8 µM: 100%
ERBB2
  remaining binding at 2.8 µM: 100%
FER
  remaining binding at 2.8 µM: 100%
FLT1
  remaining binding at 2.8 µM: 100%
FLT3(N841I)
  remaining binding at 2.8 µM: 91%
GRK2
  remaining binding at 2.8 µM: 100%
ITK
  remaining binding at 2.8 µM: 100%
LATS2
  remaining binding at 2.8 µM: 100%
LCK
  remaining binding at 2.8 µM: 100%
MAP3K15
  remaining binding at 2.8 µM: 84%
MARK4
  remaining binding at 2.8 µM: 98%
MET(Y1235D)
  remaining binding at 2.8 µM: 99%
MKNK1
  remaining binding at 2.8 µM: 96%
NEK11
  remaining binding at 2.8 µM: 100%
OSR1
  remaining binding at 2.8 µM: 90%
PHKG2
  remaining binding at 2.8 µM: 96%
PIK3CB
  remaining binding at 2.8 µM: 93%
PKAC-beta
  remaining binding at 2.8 µM: 100%
PRKD1
  remaining binding at 2.8 µM: 92%
RET
  remaining binding at 2.8 µM: 96%
p38-alpha
  remaining binding at 2.8 µM: 100%
